Literature values in US20260263387A1, “INTRANASAL EPINEPHRINE FORMULATIONS AND METHODS OF USE” (ARS Pharmaceuticals Operations, Inc., priority 2024, published 2026).

blood level of epinephrine (intranasal dose level of 2.5 mg and below (0.3 mg, 0.6 mg, 1.25 mg, or 2.5 mg)): no blood level
significant systemic absorption of epinephrine via the IN route (intranasal, Srisawat): observed only at 5 mg
Compound: CNC[C@H](O)c1ccc(O)c(O)c1 [epinephrine, (R)-4-(1-Hydroxy-2-(methylamino)ethyl)benzene-1,2-diol]
